Consider 24 molecules from patent US20150225369A1, “DDR2 INHIBITORS FOR THE TREATMENT OF OSTEOARTHRITIS” (Merck Patent GmbH, priority 2012, published 2015).

For this test, the target named is T1, HEK293 transfected with human DDR2 (Homo sapiens, UniProt Q16832).
T1 construct: expressed in transfected cells; host or cells: HEK293 (PLT460F_(DDR2)-P7-1)
T1 sequence (Q16832 22-855): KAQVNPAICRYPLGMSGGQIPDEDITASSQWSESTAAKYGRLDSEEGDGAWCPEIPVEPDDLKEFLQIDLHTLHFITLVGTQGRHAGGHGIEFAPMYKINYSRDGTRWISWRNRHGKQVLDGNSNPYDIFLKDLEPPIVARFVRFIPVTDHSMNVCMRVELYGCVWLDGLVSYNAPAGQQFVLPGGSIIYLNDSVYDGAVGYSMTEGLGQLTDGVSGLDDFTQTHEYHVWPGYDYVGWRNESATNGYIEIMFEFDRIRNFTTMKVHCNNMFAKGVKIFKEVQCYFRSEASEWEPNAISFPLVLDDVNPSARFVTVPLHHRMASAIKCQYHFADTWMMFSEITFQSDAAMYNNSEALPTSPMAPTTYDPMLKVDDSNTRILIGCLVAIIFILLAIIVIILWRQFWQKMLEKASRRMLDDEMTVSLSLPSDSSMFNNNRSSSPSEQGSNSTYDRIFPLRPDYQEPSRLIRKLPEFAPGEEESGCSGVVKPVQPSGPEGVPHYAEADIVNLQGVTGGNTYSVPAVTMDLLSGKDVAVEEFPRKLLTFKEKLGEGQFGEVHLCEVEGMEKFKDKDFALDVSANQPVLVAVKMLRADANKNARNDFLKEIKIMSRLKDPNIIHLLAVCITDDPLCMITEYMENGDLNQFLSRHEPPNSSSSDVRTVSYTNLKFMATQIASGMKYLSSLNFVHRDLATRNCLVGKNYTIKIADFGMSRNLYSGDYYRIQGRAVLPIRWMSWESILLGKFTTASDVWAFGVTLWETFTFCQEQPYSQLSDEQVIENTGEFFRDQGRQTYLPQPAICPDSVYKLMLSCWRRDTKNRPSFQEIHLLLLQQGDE
Nature of the test: Phospho-DDR2 cellular assay (collagen II induced DDR2 phosphorylation, ELISA). The note with it: cellular phospho-DDR2; read-out: IC50 [p-DDR2]. The test is classed as cell-based. As for the experimental part:
Assays were performed in a 384 well plate format, using cell line HEK293 transfected with human DDR2 (PLT460F_(DDR2)-P7-1)
Cells were seeded at a density of 10'000 cells/well in 384well poly-D-lysine coated Black/clear plate (Cellcoat Greiner) and incubated in DMEM medium in the presence of 10% fetal bovine serum at 37° C., 5% CO2 for 48 h. Medium was replaced by serum-free medium and cells were incubated at 37° C., 5% CO2 for 8 h. Compound to be tested in 5% DMSO or 5% DMSO and 50 μg/ml of chicken collagen II were added and cells were incubated at 37° C., 5% CO2 for 16 h
Cells were rinsed with ice-cold PBS, lysed with lysis buffer (M-PER Thermo #78501) for 30 min at room temperature and centrifuged for 1 min at 1000 RPM. In parallel, White High binding 384 well plates (Corning) were coated with mouse anti-human DDR2 capture antibody (R&D Systems kit DuoSet IC Human phospho-DDR2 ELISA), overnight at RT.
An aliquot of cell lysate was transferred to the coated plates and incubated for 2 h at RT. Plates were washed and mouse anti-phospho-tyrosine detection antibody (R&D Systems kit DuoSet IC Human phospho-DDR2 ELISA) conjugated to horse radish peroxidase (HRP) was added for 2 h at RT. Plates were washed and chemiluminescent substrate for HRP (Thermo) was added for 15 min at RT. Luminescence was measured on a luminometer.
(In general: ELISA stands for enzyme-linked immunosorbent assay.)
Usually IC50 stands for the concentration that gives 50% inhibition. As to `CNC(=O)c1cc(Oc2ccc(CNC(=O)Nc3cc(C(F)(F)F)ccc3CN3CCNCC3)cc2)ccn1` [compound 192, 4-{4-[3-(2-Piperazin-1-ylmethyl-5-trifluoromethyl-phenyl)-ureidomethyl]-phenoxy}-pyridine-2-carboxylic acid methylamide], the IC50 worked out at 1.15 µM.

As to `CNC(=O)c1cc(Oc2ccc(CNC(=O)Nc3ccc(C)cc3CO)cc2C)ccn1` [compound 196, 4-{4-[3-(2-Hydroxymethyl-4-methyl-phenyl)-ureidomethyl]-2-methyl-phenoxy}-pyridine-2-carboxylic acid methylamide], the IC50 came out at 17.6 µM.

In the case of `CNC(=O)c1cc(Oc2ccc(CNC(=O)Nc3ccccc3CO)cc2C)ccn1` [compound 198, 4-{4-[3-(2-Hydroxymethyl-phenyl)-ureidomethyl]-2-methyl-phenoxy}-pyridine-2-carboxylic acid methylamide], the IC50 was determined as 7.5 µM.

Turning to `CNC(=O)Cc1ccc(C(F)(F)F)cc1NC(=O)NCc1ccc(Oc2ccnc(C(=O)NC)c2)c(C)c1` [compound 200, 4-{2-Methyl-4-[3-(2-methylcarbamoylmethyl-5-trifluoromethyl-phenyl)-ureidomethyl]-phenoxy}-pyridine-2-carboxylic acid methylamide], the IC50 is 0.455 µM.

For `CNC(=O)c1cc(Oc2ccc(CNC(=O)Nc3cc(C(F)(F)F)ccc3-n3cncn3)cc2)ccn1` [compound 201, 4-{4-[3-(2-[1,2,4]Triazol-1-yl-5-trifluoromethyl-phenyl)-ureidomethyl]-phenoxy}-pyridine-2-carboxylic acid methylamide], the IC50 was determined as 0.041 µM.

Consider `CNC(=O)c1cc(Oc2ccc(CNC(=O)Nc3cc(C(F)(F)F)ccc3-n3cncn3)cc2C)ccn1` [compound 202, 4-{2-Methyl-4-[3-(2-[1,2,4]triazol-1-yl-5-trifluoromethyl-phenyl)-ureidomethyl]-phenoxy}-pyridine-2-carboxylic acid methylamide], for which the IC50 came out at 0.014 µM.

Consider `CNC(=O)c1cc(Oc2ccc(CNC(=O)Nc3cc(C(F)(F)F)ccc3-n3ccnn3)cc2C)ccn1` [compound 203, 4-{2-Methyl-4-[3-(2-[1,2,3]triazol-1-yl-5-trifluoromethyl-phenyl)-ureidomethyl]-phenoxy}-pyridine-2-carboxylic acid methylamide], for which the IC50 was determined as 0.019 µM.

With `CNC(=O)c1cc(Oc2ccc(CNC(=O)Nc3cc(C(F)(F)F)ccc3O)cc2C)ccn1` [compound 204, 4-{4-[3-(2-Hydroxy-5-trifluoromethyl-phenyl)-ureidomethyl]-2-methyl-phenoxy}-pyridine-2-carboxylic acid methylamide], the IC50 stood at 0.038 µM.

For `CNC(=O)c1cc(Oc2ccc(CNC(=O)N3C(=O)Cc4ccc(C(F)(F)F)cc43)cc2)ccn1` [compound 205, 2-Oxo-6-trifluoromethyl-2,3-dihydro-indole-1-carboxylic acid 4-(2-methylcarbamoyl-pyridin-4-yloxy)-benzylamide], the IC50 amounted to 1.1 µM.

Take `CNC(=O)c1cc(Oc2ccc(CNC(=O)Nc3cc(C(F)(F)F)ccc3-n3ccnn3)cc2)ccn1` [compound 206, 4-{4-[3-(2-[1,2,3]Triazol-1-yl-5-trifluoromethyl-phenyl)-ureidomethyl]-phenoxy}-pyridine-2-carboxylic acid methylamide]: the IC50 worked out at 0.031 µM.

As for `CNC(=O)c1cc(Oc2ccc(CNC(=O)Nc3cc(C(F)(F)F)ccc3CC(N)=O)cc2C)ccn1` [compound 207, 4-{4-[3-(2-Carbamoylmethyl-5-trifluoromethyl-phenyl)-ureidomethyl]-2-methyl-phenoxy}-pyridine-2-carboxylic acid methylamide], the IC50 was found to be 0.285 µM.

Turning to `CNC(=O)c1cc(Oc2ccc(CNC(=O)Nc3cc(C(F)(F)F)ccc3CN3CCNCC3=O)cc2)ccn1` [compound 208, 4-(4-{3-[2-(2-Oxo-piperazin-1-ylmethyl)-5-trifluoromethyl-phenyl]-ureidomethyl}-phenoxy)-pyridine-2-carboxylic acid methylamide], the IC50 is 0.855 µM.

For the molecule `CNC(=O)c1cc(Oc2ccc(CNC(=O)Nc3cc(C(F)(F)F)ccc3CC(N)=O)cc2)ccn1` [compound 209, 4-{4-[3-(2-Carbamoylmethyl-5-trifluoromethyl-phenyl)-ureidomethyl]-phenoxy}-pyridine-2-carboxylic acid methylamide], the IC50 was 0.985 µM.

Regarding `CNC(=O)c1cc(Oc2ccc(CNC(=O)Nc3cc(C(F)(F)F)ccc3CNC(C)=O)cc2C)ccn1` [compound 214, 4-(4-{3-[2-(Acetylamino-methyl)-5-trifluoromethyl-phenyl]-ureidomethyl}-2-methyl-phenoxy)-pyridine-2-carboxylic acid methylamide], the IC50 worked out at 0.045 µM.

`CNC(=O)c1cc(Oc2ccc(CNC(=O)Nc3cc(C)c(Cl)cc3-n3cccc3)cc2)ccn1` [compound 219, 4-{4-[3-(4-Chloro-5-methyl-2-pyrrol-1-yl-phenyl)-ureidomethyl]-phenoxy}-pyridine-2-carboxylic acid methylamide]: the IC50 is 0.114 µM.

For `CNC(=O)c1cc(Oc2ccc(CNC(=O)Nc3cc(C(F)(F)F)ccc3CC(=O)O)cc2C)ccn1` [compound 220, (2-{3-[3-Methyl-4-(2-methylcarbamoyl-pyridin-4-yloxy)-benzyl]-ureido}-4-trifluoromethyl-phenyl)-acetic acid], the IC50 is 23.5 µM.

On to `CNC(=O)c1cc(Oc2ccc(CNC(=O)Nc3cc(C(F)(F)F)ccc3CN)cc2C)ccn1` [compound 221, 4-{4-[3-(2-Aminomethyl-5-trifluoromethyl-phenyl)-ureidomethyl]-2-methyl-phenoxy}-pyridine-2-carboxylic acid methylamide], for which the IC50 was 0.18 µM.

Regarding `CNC(=O)c1cc(Oc2ccc(CNC(=O)Nc3nnc(C(F)(F)F)s3)cc2)ccn1` [compound 222, 4-{4-[3-(5-Trifluoromethyl-[1,3,4]thiadiazol-2-yl)-ureidomethyl]-phenoxy}-pyridine-2-carboxylic acid methylamide], the IC50 was 0.575 µM.

For the molecule `CNC(=O)c1cc(Oc2ccc(CNC(=O)Nc3cc(C(C)(C)C)n[nH]3)cc2)ccn1` [compound 223, 4-{4-[3-(5-tert-Butyl-2H-pyrazol-3-yl)-ureidomethyl]-phenoxy}-pyridine-2-carboxylic acid methylamide], the IC50 was 7.95 µM.

Turning to `CNC(=O)c1cc(Oc2ccc(CNC(=O)Nc3ccc(N4CCOCC4=O)c(Cl)c3)cc2)ccn1` [compound 225, 4-(4-{3-[3-Chloro-4-(3-oxo-morpholin-4-yl)-phenyl]-ureidomethyl}-phenoxy)-pyridine-2-carboxylic acid methylamide], the IC50 amounted to 8.8 µM.

Take `CNC(=O)c1cc(Oc2ccc(CNC(=O)Nc3cccc(N(C)C)c3)cc2)ccn1` [compound 228, 4-{4-[3-(3-Dimethylamino-phenyl)-ureidomethyl]-phenoxy}-pyridine-2-carboxylic acid methylamide]: the IC50 was found to be 1.5 µM.

`CNC(=O)c1cc(Oc2ccc(CNC(=O)Nc3cccc(C(F)(F)F)c3)cc2F)ccn1` [compound 233, 4-{2-Fluoro-4-[3-(3-trifluoromethyl-phenyl)-ureidomethyl]-phenoxy}-pyridine-2-carboxylic acid methylamide]: the IC50 stood at 0.027 µM.

On to `CNC(=O)c1cc(Oc2ccc(CNC(=O)Nc3ccc(C)c(Cl)c3)cc2F)ccn1` [compound 234, 4-{4-[3-(3-Chloro-4-methyl-phenyl)-ureidomethyl]-2-fluoro-phenoxy}-pyridine-2-carboxylic acid methylamide], for which the IC50 is 0.072 µM.

As to `CNC(=O)c1cc(Oc2ccc(CNC(=O)Nc3cc(C(F)(F)F)ccc3-n3cncn3)cc2F)ccn1` [compound 235, 4-{2-Fluoro-4-[3-(2-[1,2,4]triazol-1-yl-5-trifluoromethyl-phenyl)-ureidomethyl]-phenoxy}-pyridine-2-carboxylic acid methylamide], the IC50 is 0.027 µM.
